According to patent US11944622B2 (Annapurna Bio, Inc., priority 2018, dated 2024):

target: T1, APJ Receptor (Homo sapiens, UniProt P35414); assay: APJ cAMP assay (DiscoverX enzyme fragment complementation; inhibition of forskolin-stimulated cAMP); type: cell-based; details: CHO-K1 cell line stably expressing the APJ Receptor; EC80 forskolin; 30 minutes at 37° C.; read-out: Potency Range (APJ cAMP EC50)
T1 sequence (P35414 1-380): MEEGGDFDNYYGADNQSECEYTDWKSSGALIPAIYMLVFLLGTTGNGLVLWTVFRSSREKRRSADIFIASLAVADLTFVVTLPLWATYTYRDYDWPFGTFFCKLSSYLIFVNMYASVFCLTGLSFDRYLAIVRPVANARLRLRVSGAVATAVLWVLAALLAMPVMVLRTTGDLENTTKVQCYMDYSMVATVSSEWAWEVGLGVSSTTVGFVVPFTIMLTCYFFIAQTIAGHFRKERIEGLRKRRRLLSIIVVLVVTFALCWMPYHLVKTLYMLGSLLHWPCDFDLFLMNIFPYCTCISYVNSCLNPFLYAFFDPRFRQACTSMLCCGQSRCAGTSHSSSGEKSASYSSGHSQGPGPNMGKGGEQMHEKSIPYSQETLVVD
In short: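 CHO-K1 cells stably expressing APJ incubated with compound plus EC80 forskolin for 30 min at 37° C. cAMP detected by β-galactosidase enzyme fragment complementation with chemiluminescent read-out; % activity calculated relative to vehicle and maximal controls.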

| Structure (SMILES) | EC50 [nM] |
| --- | --- |
| CCOc1cccc(-c2nc3nc(Cl)c(NS(=O)(=O)c4ccccn4)nc3n2-c2c(OC)cccc2OC)n1 [Example 102, N-(5-Chloro-1-(2,6-dimethoxyphenyl)-2-(6-ethoxypyridin-2-yl)-1H-imidazo[4,5-b]pyrazin-6-yl)pyridine-2-sulfonamide] | 1 to 100 |
| CCOc1cccc(-c2nc3nnc(NS(C)(=O)=O)cc3n2-c2c(OC)cccc2OC)n1 [Example 21, N-(5-(2,6-dimethoxyphenyl)-6-(6-ethoxypyridin-2-yl)-5H-imidazo[4,5-c]pyridazin-3-yl)methanesulfonamide] | 1 to 100 |
| CCOc1cccc(-c2nc3nc(NCc4ccc(OC)cc4)cnc3n2-c2c(OC)cccc2OC)n1 [Example 46, 1-(2,6-dimethoxyphenyl)-2-(6-ethoxypyridin-2-yl)-N-(4-methoxybenzyl)-1H-imidazo[4,5-b]pyrazin-5-amine] | < 1 |
| CCCOc1nc2ncc(NS(=O)(=O)c3ccccc3)nc2n1-c1c(OC)cccc1OC [Example 134, N-(1-(2,6-Dimethoxyphenyl)-2-propoxy-1H-imidazo[4,5-b]pyrazin-6-yl) benzenesulfonamide] | 100 to 10000 |

The remaining lines, values ahead:

| EC50 [nM] | Structure (SMILES) |
| --- | --- |
| 1 to 100 | CCOc1cccc(-c2nc3ncc(NS(=O)(=O)Cc4cccnc4)nc3n2-c2c(OC)cccc2OC)n1 [Example 26, N-(1-(2,6-dimethoxyphenyl)-2-(6-ethoxypyridin-2-yl)-1H-imidazo[4,5-b]pyrazin-6-yl)-1-(pyridin-3-yl)methanesulfonamide] |
| 1 to 100 | CCOc1cccc(-c2nc3nc(F)c(NS(C)(=O)=O)nc3n2-c2c(OC)cccc2OC)n1 [Example 146, N-(1-(2,6-Dimethoxyphenyl)-2-(6-ethoxypyridin-2-yl)-5-fluoro-1H-imidazo[4,5-b]pyrazin-6-yl)methanesulfonamide] |
| 1 to 100 | CCOc1cccc(-c2nc3ncc(NS(=O)(=O)C4CC4)nc3n2-c2c(OC)cccc2OC)n1 [Example 22, N-(1-(2,6-dimethoxyphenyl)-2-(6-ethoxypyridin-2-yl)-1H-imidazo[4,5-b]pyrazin-6-yl)cyclopropanesulfonamide] |
| 1 to 100 | CCOc1cccc(-c2nc3ncc(NS(=O)(=O)CC4CCNCC4)nc3n2-c2c(OC)cccc2OC)n1 [Example 38, N-(1-(2,6-dimethoxyphenyl)-2-(6-ethoxypyridin-2-yl)-1H-imidazo[4,5-b]pyrazin-6-yl)-1-(piperidin-4-yl)methanesulfonamide] |
